Experimental data: patent publication US8217039B2, “Aprepitant polymorph mixtures” (Dr. Reddy's Laboratories Ltd., priority 2006, dated 2012)
Values after ≈ are worked out from the molar mass of the structure shown.

Columns and labels:
[1] = Stability studies of 50:50 intimate mixture under stress conditions (Form I to Form II ratio by XRPD); assay type: physicochemical; conditions: milling, micronization, or drying at about 90° C. for prolonged periods
Procedure: Experimental conditions for performing the XRPD analysis for quantification were as follows: Process the diffraction peak for Form II≈21.15° (2θ) with constant smooth factor of 0.07 to check the detection of Form II and for the quantification of Form II the area of Form II peak and reference peak of Form I were taken. The Form I and Form II areas of two preparations of the test sample were noted. Then average the Form I and Form II areas. The percentage of Form II in Form I is calculated by the following formula: % of Form II=[(S2/S1)÷K=(S2/S1)]×100 • S1=Area of peak corresponding to Form I • S2=Area of peak corresponding to Form II K=Response constant for Form II relative to Form I. The areas of the peaks associated with Form I and Form II (characteristic peaks) were measured using Bruker X-ray diffraction evaluation software. From these areas, the response constant for Form II relative to Form I was determined. The value for the K factor was 0.32. A 50:50 weight ratio intimate mixture of aprepitant Form I and Form II prepared using the process of Example 12 was subjected to different conditions to determine the stability of the mixture under stress conditions.

[2] = 2:1 v/v methanol/water mixture at 0° C.; cited from earlier work
[3] = cited from earlier work

Row | Compound | conversion to Form I upon stress conditions [1] | solubility [2] | thermodynamic stability compared with other crystalline forms ([3]; compared with Form II) | hygroscopicity ([3]; compared with other crystalline forms) | numeric ratio of solubilities (Form II vs Form I) [2]
1 | C[C@@H](O[C@H]1OCCN(Cc2n[nH]c(=O)[nH]2)[C@H]1c1ccc(F)cc1)c1cc(C(F)(F)F)cc(C(F)(F)F)c1 [5-[[(2R,3S)-2-[(1R)-1-[3,5-bis(trifluoromethyl)phenyl]ethoxy]-3-(4-fluorophenyl)-4-morpholinyl]methyl]-1,2-dihydro-3H-1,2,4-triazol-3-one] | does not convert to the more stable Form I | – | – | – | –
2 | C[C@@H](O[C@H]1OCCN(Cc2n[nH]c(=O)[nH]2)[C@H]1c1ccc(F)cc1)c1cc(C(F)(F)F)cc(C(F)(F)F)c1 [Form I, 5-[[(2R,3S)-2-[(1R)-1-[3,5-bis(trifluoromethyl)phenyl]ethoxy]-3-(4-fluorophenyl)-4-morpholinyl]methyl]-1,2-dihydro-3H-1,2,4-triazol-3-one] | – | 900 ± 100 µg/mL (≈ 1680 µM) | superior thermodynamic stability | non-hygroscopic | –
3 | C[C@@H](O[C@H]1OCCN(Cc2n[nH]c(=O)[nH]2)[C@H]1c1ccc(F)cc1)c1cc(C(F)(F)F)cc(C(F)(F)F)c1 [Form II, 5-[[(2R,3S)-2-[(1R)-1-[3,5-bis(trifluoromethyl)phenyl]ethoxy]-3-(4-fluorophenyl)-4-morpholinyl]methyl]-1,2-dihydro-3H-1,2,4-triazol-3-one] | – | 1300 ± 200 µg/mL (≈ 2430 µM) | – | – | 1.4
